From ChEMBL document CHEMBL1201862, “PubChem BioAssay data set” (2004)
Calls of active or inactive are those of the source.

Legend:
[1] = test system: HEK293; experiment: membrane integrity loss in HEK cells – cell-based, fluorescence, cytotoxicity control for IDE activator project, dose response (AID 588440); type: functional; conditions: Homo sapiens;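 also: cytotoxicity by LDH release measuring loss of membrane integrity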
[2] = molecular target: Heat shock protein HSP 90-alpha (Homo sapiens, UniProt P07900); type: functional, organism-based
[3] = glucagon-like peptide-1 release potency in STC-1, concentration-response, half-maximal inhibitory concentration in the STC-1 line (AID 1117345); type: functional, cell-based
[4] = test system: HEK293; experiment: optical interference in Abeta FP readout, dose response, artefact control for IDE activator project, biochemical, fluorescence polarization (AID 588442); type: functional, cell-based; conditions: Homo sapiens
[5] = Potency on glucagon-like peptide 1 release, dose-response in NCI-H716 cell line, half maximal inhibitory concentration (AID 1117344); type: functional, cell-based
[6] = molecular target: T1, Insulin-degrading enzyme (Homo sapiens, UniProt P14735); experiment: recombinant IDE activation, cell-free – biochemical, fluorescence polarization, counter-screen for IDE activator project, dose response (AID 588681)
T1 sequence (P14735 whole entry): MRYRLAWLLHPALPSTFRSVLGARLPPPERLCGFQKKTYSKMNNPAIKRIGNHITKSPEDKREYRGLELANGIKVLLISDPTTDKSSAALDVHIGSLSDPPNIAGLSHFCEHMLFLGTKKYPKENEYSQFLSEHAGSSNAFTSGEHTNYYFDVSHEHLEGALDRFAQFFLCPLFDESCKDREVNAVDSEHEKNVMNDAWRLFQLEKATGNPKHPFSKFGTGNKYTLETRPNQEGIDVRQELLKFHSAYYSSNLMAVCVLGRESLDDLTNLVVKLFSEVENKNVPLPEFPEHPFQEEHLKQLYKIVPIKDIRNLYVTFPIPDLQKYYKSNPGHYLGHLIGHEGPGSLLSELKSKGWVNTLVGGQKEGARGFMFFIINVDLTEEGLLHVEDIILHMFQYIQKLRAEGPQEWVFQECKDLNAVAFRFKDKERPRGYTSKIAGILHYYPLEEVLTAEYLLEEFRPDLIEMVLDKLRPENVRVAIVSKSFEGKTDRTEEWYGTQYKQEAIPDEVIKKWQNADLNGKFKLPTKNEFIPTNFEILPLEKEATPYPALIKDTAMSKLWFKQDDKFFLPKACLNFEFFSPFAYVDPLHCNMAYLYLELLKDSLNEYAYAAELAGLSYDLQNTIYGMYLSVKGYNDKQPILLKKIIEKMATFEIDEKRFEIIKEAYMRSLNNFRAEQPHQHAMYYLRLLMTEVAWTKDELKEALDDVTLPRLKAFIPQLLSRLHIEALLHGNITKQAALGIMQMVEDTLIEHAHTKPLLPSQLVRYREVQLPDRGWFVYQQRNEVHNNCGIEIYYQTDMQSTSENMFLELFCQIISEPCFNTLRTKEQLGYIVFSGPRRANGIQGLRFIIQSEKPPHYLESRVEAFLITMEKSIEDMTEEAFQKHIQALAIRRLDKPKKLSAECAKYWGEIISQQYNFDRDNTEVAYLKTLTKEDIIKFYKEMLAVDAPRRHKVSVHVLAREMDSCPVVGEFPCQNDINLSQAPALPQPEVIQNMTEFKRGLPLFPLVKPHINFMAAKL

[7] = rise of 2N DNA cells, HeLa – IC50, dose response (AID 1117349); type: functional, cell-based
[8] = molecular target: T1, Insulin-degrading enzyme; experiment: cellular IDE activation of Abeta substrate cleavage – fluorescence polarization, HEK cells, dose response (AID 588439); type: functional, cell-based
[9] = molecular target: Large T antigen (Simian virus 40, UniProt P03070); type: functional, Betapolyomavirus macacae;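 also: Confirmatory-stage PubChem screen for compounds that inhibit SV40 T antigen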
Sequence of Large T antigen (P03070 whole entry): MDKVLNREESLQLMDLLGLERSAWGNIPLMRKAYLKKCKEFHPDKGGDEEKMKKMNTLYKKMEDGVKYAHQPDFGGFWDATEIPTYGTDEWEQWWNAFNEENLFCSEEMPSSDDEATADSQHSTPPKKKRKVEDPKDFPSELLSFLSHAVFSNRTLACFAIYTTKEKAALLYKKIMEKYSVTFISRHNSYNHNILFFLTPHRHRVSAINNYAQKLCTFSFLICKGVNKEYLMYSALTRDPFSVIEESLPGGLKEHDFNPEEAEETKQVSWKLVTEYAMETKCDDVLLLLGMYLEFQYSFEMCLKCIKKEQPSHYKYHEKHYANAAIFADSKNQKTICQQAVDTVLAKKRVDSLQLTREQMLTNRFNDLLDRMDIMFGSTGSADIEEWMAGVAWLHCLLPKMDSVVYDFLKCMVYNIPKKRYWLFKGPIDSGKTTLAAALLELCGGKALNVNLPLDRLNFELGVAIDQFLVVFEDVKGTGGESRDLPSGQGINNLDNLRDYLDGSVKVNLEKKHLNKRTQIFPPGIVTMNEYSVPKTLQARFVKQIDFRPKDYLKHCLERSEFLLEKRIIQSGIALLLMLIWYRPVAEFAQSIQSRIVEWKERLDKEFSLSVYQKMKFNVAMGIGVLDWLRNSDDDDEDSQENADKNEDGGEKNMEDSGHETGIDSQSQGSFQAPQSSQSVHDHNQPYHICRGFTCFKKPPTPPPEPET

[10] = molecular target: Apoptotic protease-activating factor 1 (Homo sapiens, UniProt O14727); type: functional
Sequence of Apoptotic protease-activating factor 1 (O14727 whole entry): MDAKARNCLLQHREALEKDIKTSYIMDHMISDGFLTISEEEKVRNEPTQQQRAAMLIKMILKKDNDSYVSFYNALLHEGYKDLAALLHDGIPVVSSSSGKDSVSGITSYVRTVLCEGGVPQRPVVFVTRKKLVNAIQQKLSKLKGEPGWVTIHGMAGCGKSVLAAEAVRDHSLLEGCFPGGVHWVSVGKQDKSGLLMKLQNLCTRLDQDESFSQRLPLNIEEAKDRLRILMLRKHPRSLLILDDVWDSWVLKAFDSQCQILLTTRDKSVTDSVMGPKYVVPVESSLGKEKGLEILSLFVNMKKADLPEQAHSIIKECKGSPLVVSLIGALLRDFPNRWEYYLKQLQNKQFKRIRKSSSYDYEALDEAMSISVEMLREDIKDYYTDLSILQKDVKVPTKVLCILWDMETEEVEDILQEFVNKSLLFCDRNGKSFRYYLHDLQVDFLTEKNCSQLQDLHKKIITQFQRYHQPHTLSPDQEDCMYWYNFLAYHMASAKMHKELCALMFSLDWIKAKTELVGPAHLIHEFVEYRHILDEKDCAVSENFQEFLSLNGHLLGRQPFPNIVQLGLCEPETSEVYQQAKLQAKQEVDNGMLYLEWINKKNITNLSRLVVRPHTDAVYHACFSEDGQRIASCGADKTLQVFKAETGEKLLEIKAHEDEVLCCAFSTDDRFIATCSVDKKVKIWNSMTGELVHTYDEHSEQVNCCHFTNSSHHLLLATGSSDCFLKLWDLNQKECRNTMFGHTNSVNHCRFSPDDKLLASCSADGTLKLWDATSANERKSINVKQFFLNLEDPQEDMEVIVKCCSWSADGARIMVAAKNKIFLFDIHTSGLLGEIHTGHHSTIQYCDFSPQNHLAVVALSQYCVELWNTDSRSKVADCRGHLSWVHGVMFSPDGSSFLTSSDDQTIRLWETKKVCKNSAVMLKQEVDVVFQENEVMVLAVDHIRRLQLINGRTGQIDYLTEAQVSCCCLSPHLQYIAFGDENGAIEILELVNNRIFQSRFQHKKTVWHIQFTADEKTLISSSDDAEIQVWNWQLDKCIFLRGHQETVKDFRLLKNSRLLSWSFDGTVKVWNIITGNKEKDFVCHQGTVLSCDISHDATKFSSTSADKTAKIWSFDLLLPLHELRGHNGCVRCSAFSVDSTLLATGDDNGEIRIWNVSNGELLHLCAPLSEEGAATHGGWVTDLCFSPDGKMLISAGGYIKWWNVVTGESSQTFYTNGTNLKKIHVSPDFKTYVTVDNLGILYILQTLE

[11] = molecular target: T2, Ubiquitin-conjugating enzyme E2 N (Homo sapiens, UniProt P61088); type: functional
T2 sequence (P61088 whole entry): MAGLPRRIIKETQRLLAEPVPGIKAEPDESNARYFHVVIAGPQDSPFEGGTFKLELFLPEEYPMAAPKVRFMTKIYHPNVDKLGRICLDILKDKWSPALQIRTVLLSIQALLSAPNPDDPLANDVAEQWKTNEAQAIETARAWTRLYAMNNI

[12] = rise of 4N DNA cells, HeLa – IC50, dose response (AID 1117351); type: functional, cell-based
[13] = molecular target: T2, Ubiquitin-conjugating enzyme E2 N; type: functional; remark: listed apart in the source
[14] = test system: INS1; experiment: INS-1E survival protection against cytokine death – cell-based, luminescence, retest, dose response (AID 449756); type: functional; conditions: Rattus norvegicus;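 also: cell death triggered by IL-1 beta plus TNF-alpha plus IFN-gamma mixture; protective hits raise ATP signal compared with cytokine alone wells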
[15] = molecular target: T3, Bcl-2-related protein A1 (Mus musculus, UniProt Q07440); type: functional;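 also: confirmatory dose–response counterscreen on Bfl-1, used to check hits from a UBC13 polyubiquitin inhibitor campaign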
T3 sequence (Q07440 whole entry): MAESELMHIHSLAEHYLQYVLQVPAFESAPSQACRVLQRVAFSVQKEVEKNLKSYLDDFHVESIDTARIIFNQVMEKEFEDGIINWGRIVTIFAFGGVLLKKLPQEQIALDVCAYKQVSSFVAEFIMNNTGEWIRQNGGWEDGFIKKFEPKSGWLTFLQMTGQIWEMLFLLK

[16] = molecular target: Dual specificity tyrosine-phosphorylation-regulated kinase 1A (Rattus norvegicus, UniProt Q63470); type: biochemical, Homo sapiens
[17] = microbe, parasite or virus in culture; type: functional; conditions: Mycobacterium tuberculosis
[18] = NIH3T3 cell viability loss – ATP luminescence, mouse fibroblasts, counter-screen, dose response (AID 2010); type: functional, cell-based;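 also: cells exposed to compound for about 90 hours before reading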
[19] = molecular target: Beta Lactamase (Pseudomonas aeruginosa, UniProt Q932Y6); experiment: BLA reporter interference, concentration series – BLA reporter cells, FRET fluorescence, artefact control for TLR9-MyD88 binding inhibitor project, dose response (AID 588341); type: cell-based;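 also: cell based assay in CHO-K1 cells stably expressing beta-lactamase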
Sequence of Beta Lactamase (Q932Y6 whole entry): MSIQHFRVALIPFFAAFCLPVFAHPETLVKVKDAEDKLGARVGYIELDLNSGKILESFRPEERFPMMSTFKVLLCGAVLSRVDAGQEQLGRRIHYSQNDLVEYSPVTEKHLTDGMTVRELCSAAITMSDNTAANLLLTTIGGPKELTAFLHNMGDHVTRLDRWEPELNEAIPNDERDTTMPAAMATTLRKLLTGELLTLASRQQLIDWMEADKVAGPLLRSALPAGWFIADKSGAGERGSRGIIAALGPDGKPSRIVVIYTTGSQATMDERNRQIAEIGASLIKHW

[20] = non-specific 3'UTR reporter inhibition in Clone20-Shn3RL – cell-based, Renilla luciferase, cherry-picked, counter-screen for Shn3 inhibitor project, dose response (AID 624133); type: functional
[21] = molecular target: T4, Replicative DNA helicase DnaB (Mycobacterium tuberculosis, UniProt P9WMR3); experiment: DnaB intein splicing inhibitors, dose response, biochemical, cell-free fluorescence (AID 449749); type: functional
T4 sequence (P9WMR3 whole entry): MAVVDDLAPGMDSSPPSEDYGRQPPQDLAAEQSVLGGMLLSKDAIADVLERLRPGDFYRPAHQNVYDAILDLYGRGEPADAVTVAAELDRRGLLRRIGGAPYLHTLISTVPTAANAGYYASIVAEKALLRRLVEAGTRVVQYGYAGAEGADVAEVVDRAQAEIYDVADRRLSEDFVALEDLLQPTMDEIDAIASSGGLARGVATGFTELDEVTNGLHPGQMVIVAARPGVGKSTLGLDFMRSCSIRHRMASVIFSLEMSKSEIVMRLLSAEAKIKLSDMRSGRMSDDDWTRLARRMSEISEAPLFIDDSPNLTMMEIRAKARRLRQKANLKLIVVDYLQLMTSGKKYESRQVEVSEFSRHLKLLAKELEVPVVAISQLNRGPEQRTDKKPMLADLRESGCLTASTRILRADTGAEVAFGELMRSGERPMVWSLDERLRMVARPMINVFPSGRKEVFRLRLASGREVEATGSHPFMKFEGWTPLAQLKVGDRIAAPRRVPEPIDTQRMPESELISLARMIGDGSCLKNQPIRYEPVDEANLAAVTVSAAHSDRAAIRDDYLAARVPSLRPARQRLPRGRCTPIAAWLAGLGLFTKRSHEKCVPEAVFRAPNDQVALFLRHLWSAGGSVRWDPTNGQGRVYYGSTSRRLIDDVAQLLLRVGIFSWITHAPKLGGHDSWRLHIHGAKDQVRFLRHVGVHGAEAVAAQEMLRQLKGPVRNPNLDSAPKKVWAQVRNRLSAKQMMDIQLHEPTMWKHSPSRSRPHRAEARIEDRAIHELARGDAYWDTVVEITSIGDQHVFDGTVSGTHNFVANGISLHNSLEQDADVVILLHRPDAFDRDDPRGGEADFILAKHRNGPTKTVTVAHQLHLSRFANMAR

[22] = HPDE-C7 pancreatic duct cell viability loss – fluorescence, HTS (AID 430); type: functional, cell-based; conditions: Homo sapiens
[23] = molecular target: DNA damage-inducible transcript 3 protein (Mus musculus, UniProt P35639); type: functional, Cricetulus griseus
Sequence of DNA damage-inducible transcript 3 protein (P35639 whole entry): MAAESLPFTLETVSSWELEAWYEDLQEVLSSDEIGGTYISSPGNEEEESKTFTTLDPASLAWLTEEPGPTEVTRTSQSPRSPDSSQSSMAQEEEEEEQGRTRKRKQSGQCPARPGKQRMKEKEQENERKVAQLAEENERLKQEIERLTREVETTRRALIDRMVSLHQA

[24] = viability loss of HPDE-C7K cells – cell-based, fluorescence, HTS, primary screen (AID 431); type: functional; conditions: Homo sapiens
[25] = molecular target: T5, Protein RecA (Mycobacterium tuberculosis, UniProt P9WHJ3); experiment: Fluorescence Cell-Free Homogeneous Dose Retest to Identify Inhibitors of RecA-Intein Splicing Activity. [Related pubchem assays (depositor defined):AID2097, AID2223, AID489010, AID492950]; type: functional
T5 sequence (P9WHJ3 whole entry): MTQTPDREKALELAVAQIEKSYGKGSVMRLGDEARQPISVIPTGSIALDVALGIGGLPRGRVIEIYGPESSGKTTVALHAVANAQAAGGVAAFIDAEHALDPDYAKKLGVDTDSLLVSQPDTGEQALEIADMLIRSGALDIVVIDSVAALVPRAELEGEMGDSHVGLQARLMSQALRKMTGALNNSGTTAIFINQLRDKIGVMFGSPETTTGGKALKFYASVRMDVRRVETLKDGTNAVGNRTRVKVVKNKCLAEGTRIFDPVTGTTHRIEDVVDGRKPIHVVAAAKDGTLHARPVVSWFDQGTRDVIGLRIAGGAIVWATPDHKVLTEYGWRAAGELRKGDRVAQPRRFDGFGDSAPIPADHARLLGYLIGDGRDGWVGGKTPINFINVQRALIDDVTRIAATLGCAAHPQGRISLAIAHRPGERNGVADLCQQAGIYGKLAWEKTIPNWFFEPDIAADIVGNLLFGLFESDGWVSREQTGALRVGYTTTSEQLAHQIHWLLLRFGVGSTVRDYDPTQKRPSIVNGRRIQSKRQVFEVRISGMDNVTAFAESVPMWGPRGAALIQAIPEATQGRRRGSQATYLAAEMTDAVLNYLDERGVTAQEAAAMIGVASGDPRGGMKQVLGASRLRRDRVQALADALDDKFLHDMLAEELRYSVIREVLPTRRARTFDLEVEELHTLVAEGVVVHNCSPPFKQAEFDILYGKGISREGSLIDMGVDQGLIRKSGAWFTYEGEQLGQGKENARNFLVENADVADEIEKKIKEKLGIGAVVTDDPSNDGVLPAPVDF

[26] = test system: CHO; experiment: CHO cell viability loss, potency – luminescence, cytotoxicity control for TLR9-MyD88 binding inhibitor project, dose response (AID 588339); type: functional, cell-based, hamster; conditions: Cricetulus griseus;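 also: CHO cells stably coexpressing TLR9 and MyD88 fusions from primary screen; compound exposure lasted 48 hours before viability readout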
[27] = molecular target: T6, Heat shock factor protein 1 (Mus musculus, UniProt P38532); experiment: decrease of HSF1-responsive luciferase luminescence – cell-based, NIH3T3, dose retest, confirmation (AID 2382); type: functional;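 also: NIH3T3 fibroblasts with HSF1-driven luciferase reporter stressed by proteasome inhibitor MG132; luminescence from HSF1-driven luciferase expression after 8 hours of MG132 stress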
T6 sequence (P38532 whole entry): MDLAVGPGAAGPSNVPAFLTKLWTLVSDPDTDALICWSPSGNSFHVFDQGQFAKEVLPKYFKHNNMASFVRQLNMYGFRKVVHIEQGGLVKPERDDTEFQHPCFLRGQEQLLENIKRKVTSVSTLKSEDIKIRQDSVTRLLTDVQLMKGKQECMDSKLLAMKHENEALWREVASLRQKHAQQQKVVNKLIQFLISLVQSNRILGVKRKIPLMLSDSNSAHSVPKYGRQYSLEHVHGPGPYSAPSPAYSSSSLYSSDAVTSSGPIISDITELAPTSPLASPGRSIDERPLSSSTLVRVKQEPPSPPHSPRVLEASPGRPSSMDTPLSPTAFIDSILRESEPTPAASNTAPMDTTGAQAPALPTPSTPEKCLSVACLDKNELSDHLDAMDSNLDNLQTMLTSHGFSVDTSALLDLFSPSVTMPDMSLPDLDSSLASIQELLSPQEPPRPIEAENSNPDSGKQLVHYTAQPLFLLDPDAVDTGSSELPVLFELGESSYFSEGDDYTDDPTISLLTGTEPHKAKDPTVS

[28] = molecular target: Sphingosine 1-phosphate receptor 1 (Homo sapiens, UniProt P21453); type: functional;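 also: Tango beta-arrestin reporter U2OS cells stimulated with S1P near its EC80; inhibitor potency meaning antagonism of receptor activation by the natural agonist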
Sequence of Sphingosine 1-phosphate receptor 1 (P21453 whole entry): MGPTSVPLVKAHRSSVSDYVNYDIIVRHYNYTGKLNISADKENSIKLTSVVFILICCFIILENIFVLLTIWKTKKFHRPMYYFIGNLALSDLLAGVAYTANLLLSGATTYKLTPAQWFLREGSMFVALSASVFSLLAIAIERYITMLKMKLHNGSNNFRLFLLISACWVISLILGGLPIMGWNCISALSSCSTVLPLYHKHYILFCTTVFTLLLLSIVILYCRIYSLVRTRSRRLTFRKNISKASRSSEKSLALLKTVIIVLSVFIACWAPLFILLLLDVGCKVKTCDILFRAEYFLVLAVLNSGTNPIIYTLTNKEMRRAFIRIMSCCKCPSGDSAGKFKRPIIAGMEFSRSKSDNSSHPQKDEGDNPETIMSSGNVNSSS

[29] = Trypanosoma cruzi growth suppression in host cells – NIH3T3 host cells, beta-gal luminescence, confirmation (AID 2044); type: functional, cell-based;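 also: intracellular parasites grown in NIH/3T3 mouse fibroblasts as host cells; luminescent beta-galactosidase reporter signal from transgenic T. cruzi replicating inside host cells; inhibitors lower the luminescence signal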
[30] = reduction of Shn3 3'UTR-driven luciferase in osteoblasts – cell-based, Clone20 osteoblasts, firefly luciferase, cherry-picked, dose response (AID 624132); type: functional;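 also: firefly luciferase luminescence from reporter carrying the Shn3 3'UTR in osteoblasts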
[31] = molecular target: Sphingosine 1-phosphate receptor 4 (Homo sapiens, UniProt O95977); experiment: Fluorescence dose response cell-based high throughput screening assay for antagonists of the Sphingosine 1-Phosphate Receptor 4 (S1P4). [Related pubchem assays: 1524 (Confirmation in triplicates.), 1510 (Primary screen.)]; type: functional
Sequence of Sphingosine 1-phosphate receptor 4 (O95977 whole entry): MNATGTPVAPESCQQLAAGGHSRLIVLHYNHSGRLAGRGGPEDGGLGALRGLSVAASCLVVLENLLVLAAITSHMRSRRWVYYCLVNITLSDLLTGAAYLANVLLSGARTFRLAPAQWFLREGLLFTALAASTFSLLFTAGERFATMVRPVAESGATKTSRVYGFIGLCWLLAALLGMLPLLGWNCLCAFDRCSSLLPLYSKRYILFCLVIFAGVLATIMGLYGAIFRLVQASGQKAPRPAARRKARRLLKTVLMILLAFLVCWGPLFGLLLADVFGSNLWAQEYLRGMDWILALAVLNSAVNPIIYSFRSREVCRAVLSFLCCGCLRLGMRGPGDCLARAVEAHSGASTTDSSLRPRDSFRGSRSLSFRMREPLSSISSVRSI

[32] = loss of viability in HepG2 cells – cell-based, CellTiter-Glo, cherry-picked, cytotoxicity control for Shn3 inhibitor project, dose response (AID 624134); type: functional

In the case of `CCCCCCCCCCCCCCCC[N+](C)(C)CCN(Cc1ccc(OC)cc1)c1ncccn1` [THONZONIUM BROMIDE], the IC50 [1] is reported as 5.21 µM (active), the AC50 [2] is reported as 6.06 µM (active) and the IC50 [3] is reported as > 40 µM (inactive). For the same compound, the EC50 [4] was > 55.9 µM (inactive), the IC50 [5] was 17.8 µM (inactive) and the EC50 [6] was 53.3 µM (inactive). The IC50 [7] was > 10 µM (inactive), the EC50 [8] was > 54.7 µM (inactive) and the IC50 [9] was 15.4 µM (active). The IC50 [10] was 8.37 µM (active), the IC50 [11] was 2.86 µM (active) and the IC50 [12] was > 10 µM (inactive). The IC50 [13] was 2.99 µM (active), the AC50 [14] was 2.54 µM (active) and the IC50 [15] was 6.44 µM (active). The AC50 [16] was 9.42 µM (active).

For `CS(=O)(=O)c1nc(-c2ccccc2)cc(C(F)(F)F)n1`, the CC50 [17] was 30.7 µM (active), the EC50 [18] was 2.55 µM (active) and the IC50 [19] was 29.1 µM (inactive). For the same compound, the AC50 [20] was 7.07 µM (active), the AC50 [21] was 4.91 µM (active) and the EC50 [22] was 4.36 µM (active). The “Absolute IC50 (CHOP)” value [23] was 10 µM, the EC50 [24] was 4.8 µM (active) and the EC50 [25] was 5.53 µM (active). For the same compound, the IC50 [26] was 3.23 µM (active), the EC50 [27] was 8.84 µM (inconclusive) and the IC50 [28] was 16.7 µM (not active). The EC50 [29] was 2.21 µM (active), the AC50 [30] was 1.53 µM (active) and the IC50 [31] was 1.09 µM (active). For the same compound, the AC50 [32] was 16 µM (active).
